The text below walks through data of ChEMBL document CHEMBL5365478, “Structure-Based Design and Synthesis of Stapled 10Panx1 Analogues for Use in Cardiovascular Inflammatory Diseases” (J Med Chem, 2023).

The target in data set [1] is Pannexin-1 (Mus musculus) (UniProt Q9JIP4). Description: Inhibition of PANX1 in mouse B16-BL6 cells assessed as reduction in HOS-induced ATP release at 100 uM preincubated for 10 mins followed by HOS solution addition and measured after 30 mins by bioluminescence analysis relative to control. The settings on record: time 40.0 min. Type of data set: cell-based.
Sequence of Pannexin-1 (Mus musculus) (Q9JIP4 whole entry): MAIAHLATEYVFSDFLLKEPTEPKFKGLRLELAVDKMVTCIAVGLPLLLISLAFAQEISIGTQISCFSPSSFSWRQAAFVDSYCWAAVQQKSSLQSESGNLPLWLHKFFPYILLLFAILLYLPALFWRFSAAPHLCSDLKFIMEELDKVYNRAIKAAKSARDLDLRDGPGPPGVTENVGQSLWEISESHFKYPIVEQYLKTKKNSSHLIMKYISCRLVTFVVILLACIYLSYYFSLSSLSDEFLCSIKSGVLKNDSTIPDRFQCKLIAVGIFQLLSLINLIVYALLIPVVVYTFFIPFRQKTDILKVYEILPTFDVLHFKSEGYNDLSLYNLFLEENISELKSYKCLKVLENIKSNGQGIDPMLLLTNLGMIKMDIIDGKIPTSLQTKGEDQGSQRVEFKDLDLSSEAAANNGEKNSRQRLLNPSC
The test system of data set [2] is B16-BL6. Briefly: Cytotoxicity against mouse B16-BL6 cells at 12.5 to 100 uM incubated for 30 mins with compound in HOS solution by LDH assay. The settings on record: b16-bl6, 0.5 h, dose 12.5-100 µM. Type of data set: toxicity, cell-based.
Data set [3] addresses Pannexin-1 (Mus musculus) (UniProt Q9JIP4). Briefly: Inhibition of PANX1 in mouse B16-BL6 cells assessed as reduction in HOS-induced ATP release at 12.5 uM preincubated for 10 mins followed by HOS solution addition and measured after 30 mins by bioluminescence analysis. The format is cell-based. The settings on record: time 40.0 min.
Data set [4] has as its target Pannexin-1 (Rattus norvegicus) (UniProt P60570). Briefly: Inhibition of PANX1 in rat H9C2 cells assessed as reduction in HOS-induced ATP release at 12.5 to 100 uM preincubated for 10 mins followed by HOS solution addition and measured after 30 mins by bioluminescence analysis. Type of data set: cell-based. The settings on record: dose 12.5-100 µM, time 40.0 min.
Data set [5] has as its target Pannexin-1 (Mus musculus) (UniProt Q9JIP4). Description: Inhibition of PANX1 in mouse B16-BL6 cells assessed as reduction in HOS-induced Yo-Pro-1 uptake by measuring reduction in green fluorescence at 100 uM preincubated for 10 mins followed by HOS solution addition and measured after 30 mins by fluorescence based analysis relative to control. The settings on record: time 40.0 min. The format is cell-based.

The target in data set [6] is Pannexin-1 (Homo sapiens) (UniProt Q96RD7). Briefly: Inhibition of PANX1 in human EA.hy 926 cells assessed as reduction in HOS-induced ATP release at 100 uM preincubated for 10 mins followed by HOS solution addition and measured after 30 mins by bioluminescence analysis. The format is cell-based. The settings on record: time 40.0 min.
Sequence of Pannexin-1 (Homo sapiens) (Q96RD7 whole entry): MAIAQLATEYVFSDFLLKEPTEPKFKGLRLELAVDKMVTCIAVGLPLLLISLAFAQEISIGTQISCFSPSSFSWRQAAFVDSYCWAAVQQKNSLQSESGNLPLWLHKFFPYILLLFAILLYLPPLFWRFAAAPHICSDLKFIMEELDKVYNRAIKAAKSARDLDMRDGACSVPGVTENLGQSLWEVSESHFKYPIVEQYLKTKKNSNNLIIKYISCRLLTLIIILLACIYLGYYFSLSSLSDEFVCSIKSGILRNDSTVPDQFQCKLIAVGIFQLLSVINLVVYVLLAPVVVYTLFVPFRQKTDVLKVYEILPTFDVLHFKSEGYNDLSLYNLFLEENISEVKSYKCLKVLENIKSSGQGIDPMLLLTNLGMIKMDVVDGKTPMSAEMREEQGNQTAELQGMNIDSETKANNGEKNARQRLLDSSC
The test system of data set [7] is EA.hy 926. Description: Antiinflammatory activity in TNF-alpha stimulated human EA.hy926 cells cocultured with human THP-1 cells assessed as inhibition of monocyte adhesion at 100 uM incubated for 15 mins followed by adhesion for 2 hrs relative to control. As to conditions: EA.hy 926, 2.25 h, time 135 min. The format is functional.
The target of data set [8] is Pannexin-1 (Homo sapiens) (UniProt Q96RD7). Briefly: Inhibition of PANX1 in human EA.hy 926 cells assessed as reduction in HOS-induced ATP release at 12.5 uM preincubated for 10 mins followed by HOS solution addition and measured after 30 mins by bioluminescence analysis relative to control. Type of data set: cell-based. As to conditions: time 40.0 min.
Data set [9] has as its system EA.hy 926. Description: Cytotoxicity against human EA.hy 926 cells at 12.5 to 100 uM incubated for 30 mins with compound in HOS solution by LDH assay. The format is toxicity, cell-based. The settings on record: ea.hy 926, 0.5 h, dose 12.5-100 µM.
For data set [10], the target named is Pannexin-1 (Mus musculus) (UniProt Q9JIP4). Briefly: Inhibition of PANX1 in mouse B16-BL6 cells assessed as reduction in HOS-induced ATP release preincubated for 10 mins followed by HOS solution addition and measured after 30 mins by bioluminescence analysis. Type of data set: cell-based. As to conditions: dose 6.25-400 µM, time 40.0 min.
In data set [11] the test system is B16-BL6. Description: Cytotoxicity against mouse B16-BL6 cells at 6.25 to 100 uM incubated for 30 mins with compound in HOS solution by LDH assay. The format is toxicity, cell-based. As to conditions: b16-bl6, 0.5 h, dose 6.25-100 µM.
The target of data set [12] is Pannexin-1 (Mus musculus) (UniProt Q9JIP4). Briefly: Inhibition of PANX1 in mouse B16-BL6 cells assessed as reduction in HOS-induced Yo-Pro-1 uptake by measuring reduction in green fluorescence at 12.5 uM preincubated for 10 mins followed by HOS solution addition and measured after 30 mins by fluorescence based analysis. Type of data set: cell-based. As to conditions: time 40.0 min.

A short description of data set [13]: Stability in human plasma assessed as half life at 1.2 mM incubated for 30 mins by LC-MS analysis. Type of data set: ADME, cell-free.
For data set [14], the system named is EA.hy 926. Briefly: Antiinflammatory activity in TNF-alpha stimulated human EA.hy926 cells cocultured with human THP-1 cells assessed as inhibition of monocyte adhesion at 12.5 uM incubated for 15 mins followed by adhesion for 2 hrs. The format is functional, cell-based. The settings on record: time 135.0 min.
A short description of data set [15]: Stability in human plasma assessed as intact parent compound level measured after 24 hrs by LC-MS analysis. The settings on record: read-out: Stability. Type of data set: ADME, cell-free.

Structures are written as SMILES. The source made the active and inactive calls. Bridge positions count the residues as written; N and C are the ends. Square brackets hold non-standard residues; d marks the D form. Triazole bridges read from a SMILES are 1,4-linked. Peptide text beside a SMILES is read from it. Lys(N3) = [N-]=[N+]=NCCCC[C@H](N)C(=O)O; Pra = C#CC[C@H](N)C(=O)O; Ahx = NCCCCCC(=O)O

Sequence of Pannexin-1 (Rattus norvegicus) (P60570 whole entry): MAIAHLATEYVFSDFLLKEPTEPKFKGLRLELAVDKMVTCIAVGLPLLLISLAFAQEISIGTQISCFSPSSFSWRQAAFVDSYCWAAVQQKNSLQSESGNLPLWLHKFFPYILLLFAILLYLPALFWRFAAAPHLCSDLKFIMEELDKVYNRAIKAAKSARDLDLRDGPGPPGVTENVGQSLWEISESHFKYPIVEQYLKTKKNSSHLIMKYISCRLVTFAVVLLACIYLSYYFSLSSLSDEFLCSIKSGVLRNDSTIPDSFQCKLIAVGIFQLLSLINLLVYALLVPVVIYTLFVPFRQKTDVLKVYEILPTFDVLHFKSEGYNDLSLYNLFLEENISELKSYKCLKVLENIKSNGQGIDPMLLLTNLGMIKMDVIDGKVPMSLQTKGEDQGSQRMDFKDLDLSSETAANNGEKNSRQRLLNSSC

The term inhibition denotes how much of the control response was suppressed. As for `CC(=O)N[C@H]1Cc2cn(nn2)CCCC[C@@H](C(=O)N[C@H]2Cc3cn(nn3)CCCC[C@@H](C(=O)N[C@@H](Cc3ccc(O)cc3)C(N)=O)NC(=O)[C@H](CC(=O)O)NC(=O)[C@H](C(C)C)NC(=O)[C@H](Cc3ccccc3)NC2=O)NC(=O)[C@H](CCC(N)=O)NC(=O)[C@H](CCCNC(=N)N)NC(=O)[C@H](Cc2c[nH]c3ccccc23)NC1=O` (Ac-[Pra]WRQ[Lys(N3)][Pra]FVD[Lys(N3)]Y-NH2; triazole 1-5, 6-10), the inhibition in data set [1] was determined as 48%. The Activity result in the data set with B16-BL6 [2] is recorded as “Non-Toxic”. In [3], the inhibition entry is “Active”.

As usually defined, the half-life is the time needed for the level to fall by half in the phase considered. On to `CC(C)[C@H](NC(=O)[C@H](Cc1ccccc1)NC(=O)[C@H](C)NC(=O)[C@H](C)NC(=O)[C@H](CCC(N)=O)NC(=O)[C@H](CCCNC(=N)N)NC(=O)[C@@H](N)Cc1c[nH]c2ccccc12)C(=O)N[C@@H](CC(=O)O)C(=O)N[C@@H](CO)C(=O)N[C@@H](Cc1ccc(O)cc1)C(=O)O` (H-WRQAAFVDSY-OH), for which the inhibition result in data set [4] and in data set [12] was “inactive” each time. Further, the values for the inhibition in data set [5], in data set [8] and in data set [10] were 14%, 35% and “Dose-Dependent Effect”, respectively. In data set [6], the inhibition entry was “Active”. The inhibition at 100 µM in the data set on EA.hy 926 [7] was 17%. Moreover, the Activity result with EA.hy 926 [9] and in the data set on B16-BL6 [11] was “Non-Toxic” in each case. Moreover, in [13], the half-life at 1200 µM stood at 2.27 min.

With `CC(C)[C@@H]1NC(=O)[C@H](Cc2ccccc2)NC(=O)[C@@H](NC(=O)[C@@H]2CCCCn3cc(nn3)C[C@H](NC(=O)CCCCCNC(=O)[C@@H](N)CCCCN)C(=O)N[C@@H](Cc3c[nH]c4ccccc34)C(=O)N[C@@H](CCCNC(=N)N)C(=O)N[C@@H](CCC(N)=O)C(=O)N2)Cc2cn(nn2)CCCC[C@@H](C(=O)N[C@@H](Cc2ccc(O)cc2)C(N)=O)NC(=O)[C@H](CC(=O)O)NC1=O` (H-K[Ahx][Pra]WRQ[Lys(N3)][Pra]FVD[Lys(N3)]Y-NH2; triazole 3-7, 8-12), the inhibition in [8] was found to be 25%. Besides, the inhibition result in the data set on EA.hy 926 [14] is “Active”. Moreover, the Activity entry in the data set with EA.hy 926 [9] is “Non-Toxic”. In addition, the remaining at 24 h in [15] was 20%.
